Laboratory results published in the supplement of paper PMC10307832.

Experiments:
Experiment in all cases: relative viability (nuclei count vs DMSO), 5 days (fraction); higher = more cells survive
Seliciclib + Crizotinib = compound: CC[C@H](CO)Nc1nc(NCc2ccccc2)c2ncn(C(C)C)c2n1 [Seliciclib] + C[C@@H](Oc1cc(-c2cnn(C3CCNCC3)c2)cnc1N)c1c(Cl)ccc(F)c1Cl [Crizotinib] (partner 1 µM)
Procedure, shortened: (§1)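 The day after seeding in 1536-well plates, lung cancer cell lines were treated by pin tool with a single drug, or with a fixed anchor-drug dose together with five library-drug doses (not always all listed) in √10 steps. After 5 days, a combined fix-and-stain solution (final 0.05% Triton X-100, 1% formaldehyde, 1 ug/ml Hoechst) was added. Nuclei counted on 4× images gave relative viability as treated counts over vehicle counts, reported as the median of duplicate plates.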

Seliciclib + OSI-027 = compound: CC[C@H](CO)Nc1nc(NCc2ccccc2)c2ncn(C(C)C)c2n1 [Seliciclib] + COc1cccc2cc(-c3nc([C@H]4CC[C@H](C(=O)O)CC4)n4ncnc(N)c34)[nH]c12 [OSI-027] (partner 0.5 µM)
Procedure, shortened: as §1

Seliciclib + Linsitinib = compound: CC[C@H](CO)Nc1nc(NCc2ccccc2)c2ncn(C(C)C)c2n1 [Seliciclib] + C[C@]1(O)C[C@@H](c2nc(-c3ccc4ccc(-c5ccccc5)nc4c3)c3c(N)nccn32)C1 [Linsitinib] (partner 1 µM)
Procedure, shortened: as §1

Seliciclib + Tozasertib = compound: CC[C@H](CO)Nc1nc(NCc2ccccc2)c2ncn(C(C)C)c2n1 [Seliciclib] + Cc1cc(Nc2cc(N3CCN(C)CC3)nc(Sc3ccc(NC(=O)C4CC4)cc3)n2)n[nH]1 [Tozasertib] (partner 0.1 µM)
Procedure, shortened: as §1

| Cell Line | relative viability (Seliciclib + Crizotinib; first compound 0.08 µM) | relative viability (Seliciclib + Crizotinib; first compound 0.253 µM) | relative viability (Seliciclib + Crizotinib; first compound 0.8 µM) | relative viability (Seliciclib + Crizotinib; first compound 2.53 µM) | relative viability (Seliciclib + Crizotinib; first compound 8 µM) | relative viability (Seliciclib + OSI-027; first compound 0.08 µM) | relative viability (Seliciclib + OSI-027; first compound 0.253 µM) | relative viability (Seliciclib + OSI-027; first compound 0.8 µM) | relative viability (Seliciclib + OSI-027; first compound 2.53 µM) | relative viability (Seliciclib + OSI-027; first compound 8 µM) | relative viability (Seliciclib + Linsitinib; first compound 0.08 µM) | relative viability (Seliciclib + Linsitinib; first compound 0.253 µM) | relative viability (Seliciclib + Linsitinib; first compound 0.8 µM) | relative viability (Seliciclib + Linsitinib; first compound 2.53 µM) | relative viability (Seliciclib + Linsitinib; first compound 8 µM) | relative viability (Seliciclib + Tozasertib; first compound 0.08 µM) | relative viability (Seliciclib + Tozasertib; first compound 0.253 µM) | relative viability (Seliciclib + Tozasertib; first compound 0.8 µM) | relative viability (Seliciclib + Tozasertib; first compound 2.53 µM) | relative viability (Seliciclib + Tozasertib; first compound 8 µM) |
| --- | --- | --- | --- | --- | --- | --- | --- | --- | --- | --- | --- | --- | --- | --- | --- | --- | --- | --- | --- | --- |
| SK-MES-1 | 1 | 1 | 0.891 | 0.96 | 0.914 | 0.63 | 0.655 | 0.593 | 0.462 | 0.45 | 1.02 | 0.995 | 1.04 | 1.05 | 0.981 | 0.907 | 0.939 | 0.807 | 0.881 | 0.674 |
| NCI-H1755 | 0.84 | 0.85 | 0.84 | 0.973 | 0.854 | 0.633 | 0.714 | 0.738 | 0.515 | 0.691 | 0.982 | 1.02 | 0.978 | 1.02 | 0.993 | 0.617 | 0.605 | 0.62 | 0.502 | 0.534 |
| NCI-H2228 | 0.505 | 0.414 | 0.383 | 0.672 | 0.396 | 0.594 | 0.437 | 0.617 | 0.473 | 0.404 | 0.848 | 0.491 | 0.612 | 0.564 | 0.57 | 0.313 | 0.318 | 0.267 | 0.241 | 0.178 |
| NCI-H2087 | 0.909 | 0.833 | 0.956 | 0.828 | 0.846 | 0.617 | 0.533 | 0.497 | 0.273 | 0.432 | 0.896 | 0.991 | 1 | 0.867 | 0.862 | 0.252 | 0.234 | 0.242 | 0.231 | 0.192 |
| LU99A | 0.477 | 0.544 | 0.52 | 0.422 | 0.4 | 0.286 | 0.265 | 0.323 | 0.221 | 0.323 | 0.565 | 0.466 | 0.474 | 0.497 | 0.494 | 0.282 | 0.29 | 0.32 | 0.209 | 0.205 |
| NCI-H1355 | 1.01 | 1.05 | 1.13 | 1.16 | 0.998 | 0.462 | 0.303 | 0.372 | 0.288 | 0.39 | 0.788 | 0.73 | 0.792 | 0.892 | 0.812 | 0.586 | 0.517 | 0.513 | 0.506 | 0.388 |
| NCI-H520 | 0.85 | 0.552 | 0.638 | 0.921 | 0.589 | 0.275 |  | 0.324 | 0.277 | 0.228 | 0.954 | 0.762 | 0.924 | 0.949 | 0.935 | 0.47 |  | 0.406 | 0.459 | 0.573 |
| NCI-H661 | 0.98 | 1.12 | 0.939 |  | 0.894 | 0.757 | 0.741 | 0.687 | 0.65 | 0.637 | 0.545 | 0.542 | 0.543 | 0.518 | 0.451 | 0.338 | 0.362 | 0.373 | 0.359 | 0.355 |
| NCI-H1648 |  |  |  |  |  | 0.273 | 0.313 | 0.281 | 0.251 | 0.259 |  |  |  |  |  | 0.531 | 0.825 | 0.413 | 0.362 | 0.364 |
| NCI-H1650 | 0.885 | 1.12 | 0.924 | 0.847 | 0.607 | 0.842 | 0.518 | 0.641 | 0.487 | 0.443 |  |  |  |  |  | 0.387 | 0.437 | 0.364 | 0.422 | 0.318 |
| NCI-H2342 |  |  |  |  |  | 0.565 | 0.657 | 0.581 | 0.505 | 0.574 |  |  |  |  |  | 0.665 | 0.404 | 0.395 | 0.538 | 0.538 |
| NCI-H2170 | 1.1 | 0.873 | 1.18 | 1.4 | 1.11 | 0.754 | 0.639 | 0.724 | 0.691 | 0.708 |  |  |  |  |  | 0.728 | 0.707 | 0.589 | 0.83 | 0.507 |
| NCI-H1793 |  |  |  |  |  | 0.299 | 0.219 | 0.252 | 0.194 | 0.238 | 0.784 | 0.545 | 0.79 | 1.16 | 0.743 | 0.329 | 0.337 | 0.333 | 0.501 | 0.234 |
| NCI-H1563 | 0.832 | 0.73 | 0.889 | 0.899 | 0.836 | 0.766 | 0.709 | 0.725 | 0.747 | 0.792 | 1.15 | 0.925 | 1.11 | 1.21 | 1.12 |  |  |  |  |  |
| EBC-1 | 0.199 | 0.226 | 0.199 | 0.201 | 0.213 |  |  |  |  |  | 0.911 | 0.836 | 0.942 | 0.88 | 0.794 |  |  |  |  |  |
| Calu-6 | 0.773 | 0.846 | 0.825 | 0.956 | 0.668 |  |  |  |  |  | 1.05 | 0.996 | 0.95 | 1.01 | 0.899 |  |  |  |  |  |
